Patent US20200033346A1, “DIAGNOSTIC AND THERAPEUTIC METHODS FOR KRAS POSITIVE CANCERS” (The Board of Trustees of the Leland Stanford Junior …, priority 2017, published 2020)

What was measured:
[1] = molecular target: FASN (Homo sapiens, UniProt P49327); conditions: background description; cited from earlier work
[2] = test system: H1299; assay: Cell proliferation upon FASN inhibition (PI assay, hemocytometer cell counting), H1299; format: cell-based, human; conditions: cerulenin 1-10 μg/mL, FIG. 6B
From the text: (§1) Cell culture. The human non-small cell lung carcinoma cell lines, A549 and H1299, were used for in vitro experiments. A549 cells were maintained in Dulbecco's Modified Eagle Medium (DMEM) supplemented with 10% fetal bovine serum (FBS), 1% L-glutamine, 1% sodium pyruvate, 1% nonessential amino acids, and Antibiotic-Antimycotic. […] Trypsin-EDTA was used to passage both A549 and H1299 cells. All cell culture reagents were purchased from Gibco® (Thermo Fisher Scientific Inc.).
(§2) Small molecule inhibitors. […] FTS is a synthetic famesylcysteine mimetic which interferes with the anchoring of KRAS to the plasma membrane. […] Various levels of these drugs were administered to cells in culture over a time course in order to assess dose-response relationships.
(§3) Cell counting. A volume of cells was removed from culture medium and mixed with an equal volume of 0.4% Trypan blue stain. Then 10 μL was taken out and placed into a hemocytometer for cell counting. Viable cell counts were used as a measure of cell proliferation.

[3] = test system: A549; assay: Cell proliferation upon FASN inhibition (PI assay, hemocytometer cell counting), A549; format: cell-based, human; conditions: cerulenin 1-10 μg/mL, FIG. 6A
From the text: as §1, §2, §3

[4] = test system: FASN and SCD gene expression; assay: Real-time PCR of FASN and SCD mRNA in human lung cancer cell lines after inhibitor treatment; format: cell-based; conditions: qPCR
Protocol: Cell culture. The human non-small cell lung carcinoma cell lines, A549 and H1299, were used for in vitro experiments. A549 cells were maintained in Dulbecco's Modified Eagle Medium (DMEM) supplemented with 10% fetal bovine serum (FBS), 1% L-glutamine, 1% sodium pyruvate, 1% nonessential amino acids, and Antibiotic-Antimycotic. H1299 cells were maintained in RPMI 1640 medium supplemented with 10% FBS, 50 μM β-mercaptoethanol, and Antibiotic-Antimycotic. Trypsin-EDTA was used to passage both A549 and H1299 cells. All cell culture reagents were purchased from Gibco® (Thermo Fisher Scientific Inc.). Small molecule inhibitors. […] FTS is a synthetic famesylcysteine mimetic which interferes with the anchoring of KRAS to the plasma membrane. […] Various levels of these drugs were administered to cells in culture over a time course in order to assess dose-response relationships. RNA extraction and cDNA synthesis. Total RNA was isolated from cells and lung tissue using the QIAGEN RNeasy Mini kit. RNA quality and concentration were assessed by the NanoDrop® spectrophotometer. The RNA was reverse transcribed into cDNA using the SuperScript® III First-Strand Synthesis System (Invitrogen). […] Amplicons were detected by using SYBR® Green I dye as fluorophore. […] For each gene, a threshold cycle (Ct) number, which represents the number of cycles required to reach the threshold fluorescence, was determined. […]

[5] = test system: BCL2-induced lymphoma; assay: Tumor growth in mice with BCL2-induced lymphoma; format: in vivo, mouse; conditions: RAS inactivation by FTS together with BCL2 inactivation by DOX; FIG. 21
From the text: Inactivation of both BCL2 and Ras inhibits tumor growth more effectively than either oncogene alone: mice with BCL2-induced lymphoma. Plots of tumor area over time in mice cohorts: untreated (UnTx), with BCL2 inactivated (BCL2 off), Ras inactivated (Ras off, or both BCL2 and Ras inactivated (BCL2off,Ras off).

[6] = test system: ERK1/2 phospho-isoforms; assay: NIA analysis of ERK isoforms in tumor FNAs of mice with MYC-induced lymphoma; format: in vivo, mouse; conditions: FIG. 18
Protocol: (§4) Nanoimmunoassay (NIA). NIA was performed using the Nanopro 1000 (Protein Simple) to detect the phosphorylation states of ERK1 and ERK2 in lysates generated from lung tumor tissue. NIA is a highly sensitive capillary-based isoelectric focusing method that uses antibody detection to quantify protein isoforms as well as characterize post-translational protein modifications such as phosphorylation. The final protein concentration loaded into each capillary of the Nanopro 1000 was 0.1 μg/μL. The primary rabbit antibody for ERK1/2 (Millipore) was diluted 1:300 and the primary mouse antibody for the loading control, Hsp70 (Santa Cruz Biosciences), was diluted 1:500. The anti-mouse and anti-rabbit secondary antibodies, conjugated to horse radish peroxidase, were diluted 1:100. Chemiluminescence signal was recorded following the addition of luminol and peroxide detection reagents. Analysis of NIA data was performed in Compass software (Protein Simple).
Mice with MYC-induced lymphoma were treated with FTS. Tumors from mouse untreated or after 4 days of treatment were sampled by fine needle aspirate. FNAs were flash frozen and batch analyzed. NIA was used to analyze ERK isoforms using NIA.

[7] = test system: ERK1/2 phosphorylation; assay: NIA analysis of ERK isoforms in FNAs from transgenic lymphoma; format: in vivo, mouse; conditions: Day 4 of FTS treatment, FIG. 22
Protocol: as §4
Tumors were sampled by fine needle aspirate prior to treatment (UnTx), and […] after 1-8 days of treatment with FTS.
Comparison with dox is shown. Mice were either treated with FTS (BC2FTS) or BCL2 inactivation (BCL2Dox). Tumors were sampled by fine needle aspirate prior to treatment (UnTx), and […] after 1-8 days of treatment with FTS.

[8] = test system: Erk pathway; assay: NIA of ERK isoforms in head and neck squamous cell carcinoma before and after rigosertib; format: in vivo, human; conditions: one head and neck cancer patient; pre- vs post-treatment; FIG. 32
Protocol: Patients receive 2 cycles of 2 weeks of treatment with 1 week off regimen. For Cycle 1, Day 14 only, 5 patients with HNSCC will undergo biopsy or FNA for nano-proteomic profiling of total- and phospho-proteins in pathways inhibited by rigosertib, ERK and loading control. For Cycle 1 Day 14 and Cycle 2 Day 14, pharmacokinetic blood analyses are performed. […] A patient with head and neck cancer treated on clinical trial of rigosertib had tumor sampled before (pre-treatment) and after (post-treatment) treatment. NIA was used to measure ERK isforms.

[9] = test system: MEK1 phospho-isoforms; assay: NIA of MEK isoforms in NHL patients before and after atorvastatin; format: in vivo, human
Protocol: Nine patients were treated on clinical trial of HMG co-A reductase inhibitor atorvastatin. NIA was used to measure changes in MEK isoforms before (day 1) and after eight days of treatment.
Nine patients were treated on clinical trial of HMG co-A reductase inhibitor atorvastatin. NIA was used to measure changes in MEK isoforms before (day 1) and after 8 days of treatment.

[10] = test system: tumor burden; assay: Tumor burden in patients on clinical trial of atorvastatin; format: in vivo, human; conditions: eight days of treatment

Chain of FASN (P49327 whole entry, species assumed): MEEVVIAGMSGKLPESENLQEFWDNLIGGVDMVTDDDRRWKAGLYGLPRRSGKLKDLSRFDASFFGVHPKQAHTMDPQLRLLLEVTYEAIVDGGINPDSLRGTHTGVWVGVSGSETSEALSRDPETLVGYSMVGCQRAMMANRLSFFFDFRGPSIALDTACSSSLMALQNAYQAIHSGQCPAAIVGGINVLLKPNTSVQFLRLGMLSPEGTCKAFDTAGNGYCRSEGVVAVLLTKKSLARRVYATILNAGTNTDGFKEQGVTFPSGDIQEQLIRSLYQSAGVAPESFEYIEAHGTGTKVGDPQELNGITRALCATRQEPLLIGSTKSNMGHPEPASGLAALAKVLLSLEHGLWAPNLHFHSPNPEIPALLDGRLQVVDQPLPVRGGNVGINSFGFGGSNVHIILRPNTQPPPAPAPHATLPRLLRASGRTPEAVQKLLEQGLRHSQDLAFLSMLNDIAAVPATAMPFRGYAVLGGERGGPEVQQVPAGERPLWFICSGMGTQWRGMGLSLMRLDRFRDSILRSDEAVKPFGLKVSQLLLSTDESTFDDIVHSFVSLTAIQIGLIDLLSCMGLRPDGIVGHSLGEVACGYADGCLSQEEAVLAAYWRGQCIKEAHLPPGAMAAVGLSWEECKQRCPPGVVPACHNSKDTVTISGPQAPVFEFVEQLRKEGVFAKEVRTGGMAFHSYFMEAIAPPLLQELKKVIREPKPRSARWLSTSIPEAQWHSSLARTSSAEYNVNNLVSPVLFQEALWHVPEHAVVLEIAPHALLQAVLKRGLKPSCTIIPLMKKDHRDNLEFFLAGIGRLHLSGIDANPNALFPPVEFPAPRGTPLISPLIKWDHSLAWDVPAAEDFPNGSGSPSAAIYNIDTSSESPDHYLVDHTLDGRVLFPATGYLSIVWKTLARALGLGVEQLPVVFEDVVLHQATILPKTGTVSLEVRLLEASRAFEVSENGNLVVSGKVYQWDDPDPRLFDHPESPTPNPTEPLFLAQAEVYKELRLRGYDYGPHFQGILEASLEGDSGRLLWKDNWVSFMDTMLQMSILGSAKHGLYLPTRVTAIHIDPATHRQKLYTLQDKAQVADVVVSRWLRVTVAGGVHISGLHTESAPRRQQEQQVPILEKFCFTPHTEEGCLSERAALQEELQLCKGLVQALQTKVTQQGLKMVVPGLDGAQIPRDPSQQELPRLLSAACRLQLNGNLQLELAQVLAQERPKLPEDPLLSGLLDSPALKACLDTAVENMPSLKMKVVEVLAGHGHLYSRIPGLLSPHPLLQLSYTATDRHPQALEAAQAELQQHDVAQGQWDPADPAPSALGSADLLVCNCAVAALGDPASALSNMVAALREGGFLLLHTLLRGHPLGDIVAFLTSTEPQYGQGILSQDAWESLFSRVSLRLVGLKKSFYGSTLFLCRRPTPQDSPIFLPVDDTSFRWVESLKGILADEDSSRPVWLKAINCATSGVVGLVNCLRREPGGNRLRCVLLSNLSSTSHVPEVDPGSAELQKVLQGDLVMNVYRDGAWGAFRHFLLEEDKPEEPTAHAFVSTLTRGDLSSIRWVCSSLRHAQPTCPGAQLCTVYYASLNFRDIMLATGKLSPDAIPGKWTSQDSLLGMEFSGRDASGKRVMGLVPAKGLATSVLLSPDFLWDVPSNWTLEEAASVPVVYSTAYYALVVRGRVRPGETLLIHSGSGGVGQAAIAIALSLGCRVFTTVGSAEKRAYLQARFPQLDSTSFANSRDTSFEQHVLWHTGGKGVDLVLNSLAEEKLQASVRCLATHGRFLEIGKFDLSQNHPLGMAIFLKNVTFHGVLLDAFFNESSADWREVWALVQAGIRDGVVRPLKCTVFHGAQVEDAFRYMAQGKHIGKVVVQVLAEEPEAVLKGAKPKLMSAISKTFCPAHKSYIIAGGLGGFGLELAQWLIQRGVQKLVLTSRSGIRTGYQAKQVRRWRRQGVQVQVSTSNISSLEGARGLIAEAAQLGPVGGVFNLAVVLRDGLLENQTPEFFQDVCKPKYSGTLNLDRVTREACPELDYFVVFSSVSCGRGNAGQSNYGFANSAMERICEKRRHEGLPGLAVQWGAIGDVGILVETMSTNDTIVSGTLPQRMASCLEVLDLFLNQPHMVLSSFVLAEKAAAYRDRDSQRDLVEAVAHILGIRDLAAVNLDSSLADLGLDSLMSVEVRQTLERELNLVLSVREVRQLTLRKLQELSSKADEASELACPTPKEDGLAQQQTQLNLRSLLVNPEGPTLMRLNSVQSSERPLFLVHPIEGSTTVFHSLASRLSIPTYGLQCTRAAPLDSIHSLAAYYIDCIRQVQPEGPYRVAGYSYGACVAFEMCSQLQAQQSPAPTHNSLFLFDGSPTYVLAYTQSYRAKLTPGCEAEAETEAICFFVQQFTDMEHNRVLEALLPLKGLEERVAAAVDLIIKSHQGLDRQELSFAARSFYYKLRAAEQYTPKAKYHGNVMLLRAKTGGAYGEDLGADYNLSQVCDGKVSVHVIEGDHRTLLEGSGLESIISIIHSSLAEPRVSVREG

## C=C1C(=O)OC(CCCCCCCC)C1C(=O)O (centres unmarked) [C75]
[1]
  FASN inhibitory potency: weak, irreversible inhibitor

## C/C=C/C/C=C/CCC(=O)[C@H]1O[C@H]1C(N)=O [Cerulenin]
[2]
  Cell proliferation: decreased proliferation
[3]
  Cell proliferation: decreased proliferation

## CC(C)=CCC/C(C)=C/CC/C(C)=C/CSc1ccccc1C(=O)O [FTS, S-trans,trans-farnesylthiosalicylic acid]
[4]; human lung cancer cell line, FTS at 5-20 ng/mL, FIG. 5B
  Gene expression of FASN and SCD upon KRAS inhibition: decreased the gene expression of FASN and SCD in a dose-dependent manner
[5]
  Tumor growth inhibition: inhibits tumor growth more effectively than inactivating either oncogene alone
[6]; FNA after 4 days of treatment
  Total ERK1/2 level: did not change
[6]; FNA on day 4 of treatment
  Phospho-ERK isoforms: all phospho-ERK isoforms decreased
[7]
  Decrease of ERK1/2 phosphorylation: 35%

## Cc1ccnc(NS(=O)(=O)c2ccc(NC(=O)Nc3ccc(S(=O)(=O)Nc4nccc(C)n4)cc3)cc2)n1 [GSK837149A]
[1]
  FASN inhibitory potency: low, nanomolar

## COc1cc(OC)c(/C=C/S(=O)(=O)Cc2ccc(OC)c(NCC(=O)O)c2)c(OC)c1 [Rigosertib]
[8]
  Erk pathway activity (ERK isoforms by NIA): decreases Erk pathway

## O=C(Nc1ccc2[nH]nc(-c3ccncc3)c2c1)[C@@H]1CCN(CC(=O)N2CCN(c3ccc(-c4ncccn4)cc3)CC2)C1 [SCH772984]
[4]; A549 and H1299 cells, SCH772984 at 125 ng/mL, FIG. 5A
  Relative mRNA expression of FASN and SCD upon ERK inhibition: suppression of FASN and SCD

## CC(C)c1c(C(=O)Nc2ccccc2)c(-c2ccccc2)c(-c2ccc(F)cc2)n1CC[C@@H](O)C[C@@H](O)CC(=O)O [atorvastatin]
[9]; day 1 vs after 8 days of treatment, FIG. 27
  Patients with significant changes in di-phospho-MEK1: four of nine
[9]; day 1 vs after eight days of treatment, FIG. 26
  Patients with significant changes in tri-phospho-MEK1: four of nine
[9]; day 1 vs after eight days of treatment, FIG. 28
  Patients with significant changes in Mono-phospho-MEK1: one of nine
[10]; patient A
  Tumor burden: tumor burden decreased
[10]; patient B
  Tumor burden: no change in tumor burden

## epigallocatechin-3-gallate [EGCG]
[1]
  FASN inhibitory potency: high micromolar
